# From patent publication US20250147039A1, “Compounds for complexation of rare earth elements and/or s-, p-, d- block metals, their coordination compounds, peptide conjugates, method of their preparation and use thereof” (USTAV ORGANICKE CHEMIE A BIOCHEMIE AV CR V.V.I., priority 2021, published 2025)
# Columns and labels:
# [1] = Formation of 1,5-cz-[M(Lig)] from Lig and M^III ions (metal dependent click-zip) (Charts 4, 5); format: physicochemical; conditions: MOPS/NaOH buffer pH 7.0, TD728, TD827 in 50% i-PrOH; for conversion to 1,5-cz-[M(Lig)], Y^III: TD714 sum of two diastereoisomers
# [2] = pH dependent formation of 1,5- and 1,4-cz-Lig isomers from Lig (pH dependent click-zip) (Chart 13); format: physicochemical
# [3] = Formation of 1,5-cz-[Ln(Lig)] from Lig and Ln^III ions (metal dependent click-zip), MOPS/NaOH buffer pH 7.0, analytical HPLC (Charts 1, 2); conditions: MOPS/NaOH buffer pH 7.0
# [4] = Alkali metal dependent formation of 1,5-cz-Lig and 1,4-cz-Lig isomers from Lig at pH 10.2 (Chart 14); format: physicochemical; conditions: Borate/(M^I)2CO3 buffer pH 10.2
# [5] = A: 1 hour at 80° C., 0.1M HClO4 (pH ~1)
# [6] = A: 1 hour at 80° C., 1.0M HClO4 (pH ~0)
# [7] = A: 1 hour at 80° C., pH 2.2, 50 mM aq. buffer
# [8] = A: 1 hour at 80° C., pH 3.0, 50 mM aq. buffer
# [9] = A: 1 hour at 80° C., pH 3.8, 50 mM aq. buffer
# [10] = A: 1 hour at 80° C., pH 4.6, 50 mM aq. buffer
# [11] = A: 1 hour at 80° C., pH 5.4, 50 mM aq. buffer
# [12] = A: 1 hour at 80° C., pH 6.2, 50 mM aq. buffer
# [13] = A: 1 hour at 80° C., pH 7.0, 50 mM aq. buffer
# [14] = A: 1 hour at 80° C., pH 8.6, 50 mM aq. buffer
# [15] = A: 1 hour at 80° C., pH 9.4, 50 mM aq. buffer
# [16] = A: 1 hour at 80° C., pH 10.2, 50 mM aq. buffer
# [17] = B: 1 day at 80° C., 0.1M HClO4 (pH ~1)
# [18] = B: 1 day at 80° C., 1.0M HClO4 (pH ~0)
# [19] = B: 1 day at 80° C., pH 2.2, 50 mM aq. buffer
# [20] = B: 1 day at 80° C., pH 3.0, 50 mM aq. buffer
# [21] = B: 1 day at 80° C., pH 3.8, 50 mM aq. buffer
# [22] = B: 1 day at 80° C., pH 4.6, 50 mM aq. buffer
# [23] = B: 1 day at 80° C., pH 5.4, 50 mM aq. buffer
# [24] = B: 1 day at 80° C., pH 6.2, 50 mM aq. buffer
# [25] = B: 1 day at 80° C., pH 7.0, 50 mM aq. buffer
# [26] = B: 1 day at 80° C., pH 8.6, 50 mM aq. buffer
# [27] = B: 1 day at 80° C., pH 9.4, 50 mM aq. buffer
# [28] = B: 1 day at 80° C., pH 10.2, 50 mM aq. buffer
# [29] = B: 1 day at 80° C., visible analyte free precipitate
compound,measurement,setting,value
C#CCNC(=O)CN1CCN(CC(=O)O)CCN(Cc2cc(-c3ccccc3)cc(CN=[N+]=[N-])n2)CCN(CC(=O)O)CC1 [TD425],"conversion to 1,5-cz-[M(Lig)], Sc^III",[1]; 1 week at 80° C.,0%
same,"conversion to 1,5-cz-[M(Lig)], Y^III",[1]; 1 week at 80° C.,0%
same,"conversion to 1,5-cz-[M(Lig)], Sc^III",[1]; 1 hour at 80° C.,0%
same,"conversion to 1,5-cz-[M(Lig)], Y^III",[1]; 1 hour at 80° C.,0%
same,"conversion to 1,4-cz-Lig isomer",[2]; [5],0%
same,"conversion to 1,5-cz-Lig isomer",[2]; [5],13%
same,"conversion to 1,4-cz-Lig isomer",[2]; [6],0%
same,"conversion to 1,5-cz-Lig isomer",[2]; [6],13%
same,"conversion to 1,4-cz-Lig isomer",[2]; [7],0%
same,"conversion to 1,5-cz-Lig isomer",[2]; [7],13%
same,"conversion to 1,4-cz-Lig isomer",[2]; [8],0%
same,"conversion to 1,5-cz-Lig isomer",[2]; [8],10%
same,"conversion to 1,4-cz-Lig isomer",[2]; [9],0%
same,"conversion to 1,5-cz-Lig isomer",[2]; [9],3%
same,"conversion to 1,4-cz-Lig isomer",[2]; [10],0%
same,"conversion to 1,5-cz-Lig isomer",[2]; [10],1%
same,"conversion to 1,4-cz-Lig isomer",[2]; [11],0%
same,"conversion to 1,5-cz-Lig isomer",[2]; [11],1%
same,"conversion to 1,4-cz-Lig isomer",[2]; [12],0%
same,"conversion to 1,5-cz-Lig isomer",[2]; [12],0%
same,"conversion to 1,4-cz-Lig isomer",[2]; [13],0%
same,"conversion to 1,5-cz-Lig isomer",[2]; [13],0%
same,"conversion to 1,4-cz-Lig isomer",[2]; [14],0%
same,"conversion to 1,5-cz-Lig isomer",[2]; [14],0%
same,"conversion to 1,4-cz-Lig isomer",[2]; [15],0%
same,"conversion to 1,5-cz-Lig isomer",[2]; [15],1%
same,"conversion to 1,4-cz-Lig isomer",[2]; [16],0%
same,"conversion to 1,5-cz-Lig isomer",[2]; [16],1%
same,"conversion to 1,4-cz-Lig isomer",[2]; [17],0%
same,"conversion to 1,5-cz-Lig isomer",[2]; [17],90%
same,"conversion to 1,4-cz-Lig isomer",[2]; [18],0%
same,"conversion to 1,5-cz-Lig isomer",[2]; [18],88%
same,"conversion to 1,4-cz-Lig isomer",[2]; [19],0%
same,"conversion to 1,5-cz-Lig isomer",[2]; [19],93%
same,"conversion to 1,4-cz-Lig isomer",[2]; [20],0%
same,"conversion to 1,5-cz-Lig isomer",[2]; [20],89%
same,"conversion to 1,4-cz-Lig isomer",[2]; [21],0%
same,"conversion to 1,5-cz-Lig isomer",[2]; [21],57%
same,"conversion to 1,4-cz-Lig isomer",[2]; [22],0%
same,"conversion to 1,5-cz-Lig isomer",[2]; [22],15%
same,"conversion to 1,4-cz-Lig isomer",[2]; [23],0%
same,"conversion to 1,5-cz-Lig isomer",[2]; [23],6%
same,"conversion to 1,4-cz-Lig isomer",[2]; [24],1%
same,"conversion to 1,5-cz-Lig isomer",[2]; [24],6%
same,"conversion to 1,4-cz-Lig isomer",[2]; [25],4%
same,"conversion to 1,5-cz-Lig isomer",[2]; [25],8%
same,"conversion to 1,4-cz-Lig isomer",[2]; [26],5%
same,"conversion to 1,5-cz-Lig isomer",[2]; [26],10%
same,"conversion to 1,4-cz-Lig isomer",[2]; [27],4%
same,"conversion to 1,5-cz-Lig isomer",[2]; [27],11%
same,"conversion to 1,4-cz-Lig isomer",[2]; [28],2%
same,"conversion to 1,5-cz-Lig isomer",[2]; [28],12%
same,"conversion to 1,5-cz-[Ln(Lig)], Ce^III",[3]; after 1 week at 80° C.,0%
same,"conversion to 1,5-cz-[Ln(Lig)], Ce^III",[3]; after 1 hour at 80° C.,0%
same,"conversion to 1,5-cz-[Ln(Lig)], Dy^III",[3]; after 1 week at 80° C.,0%
same,"conversion to 1,5-cz-[Ln(Lig)], Dy^III",[3]; after 1 hour at 80° C.,0%
same,"conversion to 1,5-cz-[Ln(Lig)], Er^III",[3]; after 1 week at 80° C.,0%
same,"conversion to 1,5-cz-[Ln(Lig)], Er^III",[3]; after 1 hour at 80° C.,0%
same,"conversion to 1,5-cz-[Ln(Lig)], Eu^III",[3]; after 1 week at 80° C.,0%
same,"conversion to 1,5-cz-[Ln(Lig)], Eu^III",[3]; after 1 hour at 80° C.,0%
same,"conversion to 1,5-cz-[Ln(Lig)], Gd^III",[3]; after 1 week at 80° C.,0%
same,"conversion to 1,5-cz-[Ln(Lig)], Gd^III",[3]; after 1 hour at 80° C.,0%
same,"conversion to 1,5-cz-[Ln(Lig)], Ho^III",[3]; after 1 week at 80° C.,0%
same,"conversion to 1,5-cz-[Ln(Lig)], Ho^III",[3]; after 1 hour at 80° C.,0%
same,"conversion to 1,5-cz-[Ln(Lig)], La^III",[3]; after 1 week at 80° C.,0%
same,"conversion to 1,5-cz-[Ln(Lig)], La^III",[3]; after 1 hour at 80° C.,0%
same,"conversion to 1,5-cz-[Ln(Lig)], Lu^III",[3]; after 1 week at 80° C.,0%
same,"conversion to 1,5-cz-[Ln(Lig)], Lu^III",[3]; after 1 hour at 80° C.,0%
same,"conversion to 1,5-cz-[Ln(Lig)], Nd^III",[3]; after 1 week at 80° C.,0%
same,"conversion to 1,5-cz-[Ln(Lig)], Nd^III",[3]; after 1 hour at 80° C.,0%
same,"conversion to 1,5-cz-[Ln(Lig)], Pr^III",[3]; after 1 week at 80° C.,0%
same,"conversion to 1,5-cz-[Ln(Lig)], Pr^III",[3]; after 1 hour at 80° C.,0%
same,"conversion to 1,5-cz-[Ln(Lig)], Sm^III",[3]; after 1 week at 80° C.,0%
same,"conversion to 1,5-cz-[Ln(Lig)], Sm^III",[3]; after 1 hour at 80° C.,0%
same,"conversion to 1,5-cz-[Ln(Lig)], Tb^III",[3]; after 1 week at 80° C.,0%
same,"conversion to 1,5-cz-[Ln(Lig)], Tb^III",[3]; after 1 hour at 80° C.,0%
same,"conversion to 1,5-cz-[Ln(Lig)], Tm^III",[3]; after 1 week at 80° C.,0%
same,"conversion to 1,5-cz-[Ln(Lig)], Tm^III",[3]; after 1 hour at 80° C.,0%
same,"conversion to 1,5-cz-[Ln(Lig)], Yb^III",[3]; after 1 week at 80° C.,0%
same,"conversion to 1,5-cz-[Ln(Lig)], Yb^III",[3]; after 1 hour at 80° C.,0%
same,"conversion to 1,4-cz-Lig isomer, Cs^I",[4]; A: 1 hour at 80° C.,1%
same,"conversion to 1,4-cz-Lig isomer, K^I",[4]; A: 1 hour at 80° C.,1%
same,"conversion to 1,4-cz-Lig isomer, Li^I",[4]; A: 1 hour at 80° C.,0%
same,"conversion to 1,4-cz-Lig isomer, Na^I",[4]; A: 1 hour at 80° C.,0%
same,"conversion to 1,4-cz-Lig isomer, Rb^I",[4]; A: 1 hour at 80° C.,1%
same,"conversion to 1,5-cz-Lig isomer, Cs^I",[4]; A: 1 hour at 80° C.,1%
same,"conversion to 1,5-cz-Lig isomer, K^I",[4]; A: 1 hour at 80° C.,0%
same,"conversion to 1,5-cz-Lig isomer, Li^I",[4]; A: 1 hour at 80° C.,0%
same,"conversion to 1,5-cz-Lig isomer, Na^I",[4]; A: 1 hour at 80° C.,1%
same,"conversion to 1,5-cz-Lig isomer, Rb^I",[4]; A: 1 hour at 80° C.,1%
same,"conversion to 1,4-cz-Lig isomer, Cs^I",[4]; B: 1 day at 80° C.,10%
same,"conversion to 1,4-cz-Lig isomer, K^I",[4]; B: 1 day at 80° C.,10%
same,"conversion to 1,4-cz-Lig isomer, Na^I",[4]; B: 1 day at 80° C.,1%
same,"conversion to 1,4-cz-Lig isomer, Rb^I",[4]; B: 1 day at 80° C.,10%
same,"conversion to 1,5-cz-Lig isomer, Cs^I",[4]; B: 1 day at 80° C.,11%
same,"conversion to 1,5-cz-Lig isomer, K^I",[4]; B: 1 day at 80° C.,10%
same,"conversion to 1,5-cz-Lig isomer, Na^I",[4]; B: 1 day at 80° C.,9%
same,"conversion to 1,5-cz-Lig isomer, Rb^I",[4]; B: 1 day at 80° C.,10%
same,"conversion to 1,4-cz-Lig isomer, Li^I",[4]; [29],0%
same,"conversion to 1,5-cz-Lig isomer, Li^I",[4]; [29],2%
